Source: ChEMBL document CHEMBL1201862, “PubChem BioAssay data set” (2004)
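Growth conditions: 96-well plates. Treatment: test compound, 48 hours, 5 concentrations. Analysis: linear interpolation between bracketing concentrations; unreached endpoints set to highest concentration. GI50 is the concentration that inhibits growth by half.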 The source made the active and inactive calls. Rule as the data show it: active = GI50 up to about 1.1 µM and inactive = higher.

Assays:
Assay in all cases: NCI anticancer screen, dose series, 48 h
[1] = system: SNB-78
[2] = system: DLD-1
[3] = system: DMS-273
[4] = system: HOP-18
[5] = system: LXFL 529
[6] = system: RXF 631
[7] = system: XF498
[8] = system: MDA-MB-435
[9] = system: 786-0

## Nc1nc(Cl)nc2c1ncn2C1CC(O)C(CO)O1 (stereo not given)
[1]
  GI50: > 100 µM (inactive)
[2]
  GI50: > 100 µM (inactive)
[3]
  GI50: 3.89 µM (inactive)
[4]
  GI50: > 100 µM (inactive)

## COC(=O)C(Cc1ccc2c(c1)OCO2)(NC(=O)c1ccccc1)P(=O)(OC)OC (stereo not given)
[1]
  GI50: > 100 µM (inactive)
[2]
  GI50: > 100 µM (inactive)
[3]
  GI50: > 100 µM (inactive)
[5]
  GI50: > 100 µM (inactive)
[6]
  GI50: > 100 µM (inactive)
[7]
  GI50: > 100 µM (inactive)

## O=c1ccc2ccc(CBr)cc2o1
[8]
  GI50: 3.14 µM (inactive)

## COc1cc(C2S/C(=C/c3ccccc3)C(=O)N2c2ccccc2Cl)cc(OC)c1OC (stereo not given)
[8]
  GI50: 15.6 µM (inactive)

## C=C1C(=O)O[C@@H]2[C@H](O)[C@@H](C)[C@@H]3C=CC(=O)[C@@]3(C)[C@@H](OC(=O)/C(C)=C/C)[C@H]12
[1]
  GI50: 0.871 µM (active)
[2]
  GI50: 0.728 µM (active)
[3]
  GI50: 0.451 µM (active)
[7]
  GI50: 0.471 µM (active)
[4]
  GI50: 1.9 µM (inactive)

## Clc1nc(-[n+]2ccc(-c3ccncc3)cc2)nc(Nc2ccccc2)c1Cl
[9]
  GI50: 83.8 µM (inactive)
[8]
  GI50: > 100 µM (inactive)

## CC(C)(C)c1ccc2c(c1)OP1(Oc3c(Cl)cc(Cl)c4cccnc34)(O2)Oc2ccc(C(C)(C)C)cc2O1
[1]
  GI50: 23 µM (inactive)
[2]
  GI50: 5.2 µM (inactive)
[3]
  GI50: 5.04 µM (inactive)
[7]
  GI50: 13.5 µM (inactive)
[4]
  GI50: 9.98 µM (inactive)

## Cc1ccc(S(=O)(=O)OCCN(CCOS(=O)(=O)c2ccc(C)cc2)c2ccc(C=O)cc2)cc1
[8]
  GI50: 21.4 µM (inactive)

## C[C@H](N[C@H]1CCC[C@]1(O)C#Cc1ccc2c(c1)OCO2)c1ccccc1
[8]
  GI50: > 25 µM (inactive)

## Cc1cc(O)nc(NN2C(Cl)C(=O)C2c2cccc(Cl)c2)n1 (stereo not given)
[1]
  GI50: 22.2 µM (inactive)
[3]
  GI50: 17.1 µM (inactive)
[5]
  GI50: > 10 µM (inactive)
[4]
  GI50: 24 µM (inactive)
